From patent publication US12312359B2 (Vitae Pharmaceuticals, LLC, priority 2016, dated 2025) come the findings set out here.

A value given as a limit tells only on which side of the number the result lay.

Assay [1] has as its target T1, biotinylated wild-type menin and MLL-AF9 fusion protein (menin/MLL binding) (Homo sapiens, UniProt O00255).
T1 construct: made in house; host or cells: menin: E. coli; MLL-AF9-FLAG: HEK293 cells, used as cleared lysate
T1 sequence (O00255 1-610): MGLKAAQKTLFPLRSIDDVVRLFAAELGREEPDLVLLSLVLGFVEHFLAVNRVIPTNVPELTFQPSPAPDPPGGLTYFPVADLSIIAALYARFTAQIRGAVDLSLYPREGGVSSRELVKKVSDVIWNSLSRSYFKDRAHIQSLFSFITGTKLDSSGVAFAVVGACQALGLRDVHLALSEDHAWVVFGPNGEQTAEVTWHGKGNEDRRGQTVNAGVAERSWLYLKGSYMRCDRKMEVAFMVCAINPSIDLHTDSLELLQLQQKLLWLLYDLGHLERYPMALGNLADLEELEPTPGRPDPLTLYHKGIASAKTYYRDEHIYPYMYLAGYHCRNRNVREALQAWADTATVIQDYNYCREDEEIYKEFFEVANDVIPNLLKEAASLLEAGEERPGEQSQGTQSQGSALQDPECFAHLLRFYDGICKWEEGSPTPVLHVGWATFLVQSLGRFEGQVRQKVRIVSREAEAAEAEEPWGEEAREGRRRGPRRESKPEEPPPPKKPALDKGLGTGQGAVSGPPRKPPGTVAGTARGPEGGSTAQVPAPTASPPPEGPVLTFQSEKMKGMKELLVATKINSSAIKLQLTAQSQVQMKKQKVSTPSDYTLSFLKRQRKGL
As to the kind of experiment: Assay 1: menin/MLL binding AlphaLISA assay, wild-type menin. As to conditions: Table 30; column head does not say wild-type or mutated menin. The method in brief:
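Compound was preincubated 30 min at room temperature with biotinylated menin (5 nM) and MLL-AF9-FLAG lysate from HEK293 cells, pH 7.4 buffer with 5% DMSO and DTT. Bead-based Alpha signal after 60 min with streptavidin donor and anti-FLAG acceptor beads; four-parameter logistic fit gave IC50.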
Background: In Alpha technology, singlet oxygen from a donor bead excites a nearby acceptor bead.

Assay [2] has as its system human acute monocytic leukemia cell line MV-4-11. In words: Assay 2: cell proliferation assay (ATP quantitation, CellTiter-Glo), MV-4-11. Format: cell-based. As to conditions: MV-4-11 cells. The method in brief:
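MV-4-11 cells, 1.67×10^4 per well in medium with 10% FBS, were exposed to compound for 72 h at 37° C., 5% CO2; HL-60 cells served as toxicity control. Proliferation read as ATP content by CellTiter-Glo luminescence.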
In general terms: Cellular ATP, detected with luciferase, serves as a proxy for viable cell number.

On to `CC1(C)C(=O)Nc2cc(CN3CCC4(CCN(c5ncncc5Oc5ccc(F)cc5-c5ccc(C#N)cc5C5CC5)C4)C3)ccc21` (stereo not shown) [Example 205, 2-cyclopropyl-2′-((4-(7-((3,3-dimethyl-2-oxoindolin-6-yl)methyl)-2,7-diazaspiro[4.4]nonan-2-yl)pyrimidin-5-yl)oxy)-5′-fluoro-[1,1′-biphenyl]-4-carbonitrile], for which, in assay [1], the IC50 (in general, the midpoint of a concentration-inhibition curve) is less than 100 nM. The EC50 – broadly, the concentration that produces a half-maximal response – in assay [2] (Homo sapiens, MV4-11, 72 h) is less than 100 nM.
Compound `COC(=O)N(C)c1cc(F)ccc1Oc1cncnc1N1CCC2(CCN(Cc3ccc4[nH]c(=O)[nH]c4c3)C2)C1` (stereo not shown) [Example 207, methyl (5-fluoro-2-((4-(7-((2-oxo-2,3-dihydro-1H-benzo[d]imidazol-5-yl)methyl)-2,7-diazaspiro[4.4]nonan-2-yl)pyrimidin-5-yl)oxy)phenyl) (methyl)carbamate] came in with an IC50 in assay [1] of less than 100 nM. This compound showed an EC50 in assay [2] (Homo sapiens, MV4-11, 72 h) of 100 to 1000 nM.
Consider `O=c1[nH]c2ccc(CN3CCC4(CCN(c5ncncc5Oc5ccc(F)cc5OCc5ccccc5)C4)C3)cc2[nH]1` (stereo not shown) [Example 208, 5-((7-(5-(2-(benzyloxy)-4-fluorophenoxy)pyrimidin-4-yl)-2,7-diazaspiro [4.4]nonan-2-yl)methyl)-1,3-dihydro-2H-benzo[d]imidazol-2-one], for which the IC50 in assay [1] was less than 100 nM. The same compound showed an EC50 in assay [2] (Homo sapiens, MV4-11, 72 h) not below 1000 nM.
`COc1cc(F)ccc1Oc1cncnc1N1CCC2(CCN(Cc3ccc4[nH]c(=O)[nH]c4c3)C2)C1` (stereo not shown) [Example 209, 5-((7-(5-(4-fluoro-2-methoxyphenoxy)pyrimidin-4-yl)-2,7-diazaspiro[4.4]nonan-2-yl)methyl)-1,3-dihydro-2H-benzo[d]imidazol-2-one] gave an IC50 in assay [1] of less than 100 nM. In addition, the EC50 in assay [2] (Homo sapiens, MV4-11, 72 h) was 100 to 1000 nM.
Regarding `CC(C)N(C)C(=O)c1cc(F)ccc1Oc1cncnc1N1CCC2(CCN(Cc3ccc4c(c3)NC(=O)CO4)C2)C1` (stereo not shown) [Example 210, 5-fluoro-N-isopropyl-N-methyl-2-((4-(7-((3-oxo-3,4-dihydro-2H-benzo[b][1,4]oxazin-6-yl)methyl)-2,7-diazaspiro[4.4]nonan-2-yl)pyrimidin-5-yl)oxy)benzamide], the IC50 in assay [1] was less than 100 nM. This compound registered an EC50 in assay [2] (Homo sapiens, MV4-11, 72 h) of 100 to 1000 nM.
The like results for `CC1CCCN1C(=O)c1cc(F)ccc1Oc1cncnc1N1CCC2(CCN(Cc3ccc4[nH]c(=O)[nH]c4c3)C2)C1` (stereo not shown) [Example 211, 5-((7-(5-(4-fluoro-2-(2-methylpyrrolidine-1-carbonyl)phenoxy)pyrimidin-4-yl)-2,7-diazaspiro[4.4]nonan-2-yl)methyl)-1,3-dihydro-2H-benzo [d]imidazol-2-one] were, in that order, less than 100 nM and 100 to 1000 nM.
In turn, `O=C(c1cc(F)ccc1Oc1cncnc1N1CCC2(CCN(Cc3ccc4[nH]c(=O)[nH]c4c3)C2)C1)N1C2CCC1CC2` (stereo not shown) [Example 212, 5-((7-(5-(2-((1s,4s)-7-azabicyclo[2.2.1]heptane-7-carbonyl)-4-fluorophenoxy)pyrimidin-4-yl)-2,7-diazaspiro [4.4]nonan-2-yl)methyl)-1,3-dihydro-2H-benzo[d]imidazol-2-one] registered an IC50 in assay [1] of less than 100 nM. The compound also gave an EC50 in assay [2] (Homo sapiens, MV4-11, 72 h) of 100 to 1000 nM.
As for `CC(F)(F)c1ccccc1-c1cc(F)ccc1Oc1cncnc1N1CCC2(CCN(Cc3ccc4[nH]c(=O)[nH]c4c3)C2)C1` (stereo not shown) [Example 213, 5-((7-(5-((2′-(1,1-difluoroethyl)-5-fluoro-[1,1′-biphenyl]-2-yl)oxy)pyrimidin-4-yl)-2,7-diazaspiro[4.4]nonan-2-yl)methyl)-1,3-dihydro-2H-benzo[d]imidazol-2-one], the IC50 in assay [1] was less than 100 nM. Moreover, in assay [2] (Homo sapiens, MV4-11, 72 h), the EC50 was less than 100 nM.
For the compound `N#Cc1ccc(-c2cc(F)ccc2Oc2cncnc2N2CC3(CN(CC4(O)CCOCC4)C3)C2)c(C2CC2)c1` [Example 214, 2-cyclopropyl-5′-fluoro-2′-((4-(6-((4-hydroxytetrahydro-2H-pyran-4-yl)methyl)-2,6-diazaspiro[3.3]heptan-2-yl)pyrimidin-5-yl)oxy)-[1,1′-biphenyl]-4-carbonitrile], the IC50 in assay [1] is less than 100 nM. Further, the EC50 in assay [2] (Homo sapiens, MV4-11, 72 h) fell in the range of 100 to 1000 nM.
The compound `N#Cc1ccc(-c2cc(F)ccc2Oc2cncnc2N2CC3(CN(CC4CCOCC4)C3)C2)c(C2CC2)c1` [Example 215, 2-cyclopropyl-5′-fluoro-2′-((4-(6-((tetrahydro-2H-pyran-4-yl)methyl)-2,6-diazaspiro[3.3]heptan-2-yl)pyrimidin-5-yl)oxy)-[1,1′-biphenyl]-4-carbonitrile] had a concentration for half-maximal inhibition (IC50) in assay [1] of less than 100 nM. In assay [2] (Homo sapiens, MV4-11, 72 h), the half-maximal effective concentration (EC50) lay in the range of 100 to 1000 nM.
The like results for `CC(C)n1nc(C(F)(F)F)cc1-c1cc(F)ccc1Oc1cncnc1N1CCC2(CCN(Cc3ccc4[nH]c(=O)[nH]c4c3)C2)C1` (stereo not shown) [Example 217, 5-((7-(5-(4-fluoro-2-(1-isopropyl-3-(trifluoromethyl)-1H-pyrazol-5-yl)phenoxy)pyrimidin-4-yl)-2,7-diazaspiro[4.4]nonan-2-yl)methyl)-1,3-dihydro-2H-benzo[d]imidazol-2-one] were, in that order, less than 100 nM and less than 100 nM.
As for `CC(C)C1CCC(=O)N1c1cc(F)ccc1Oc1cncnc1N1CCC2(CCN(Cc3ccc4[nH]c(=O)[nH]c4c3)C2)C1` (stereo not shown) [Example 218, 5-((7-(5-(4-fluoro-2-(2-isopropyl-5-oxopyrrolidin-1-yl)phenoxy)pyrimidin-4-yl)-2,7-diazaspiro[4.4]nonan-2-yl)methyl)-1,3-dihydro-2H-benzo[d]imidazol-2-one], the IC50 in assay [1] is less than 100 nM. The compound further had an EC50 in assay [2] (Homo sapiens, MV4-11, 72 h) not below 1000 nM.
The like results for `CC(C)c1ccccc1-c1cc(F)ccc1Oc1cncnc1N1CCC2(CCN(C[C@H]3CC[C@H](N)CC3)C2)C1` (stereo partly shown) [Example 219, (1r,4r)-4-((7-(5-((5-fluoro-2′-isopropyl-[1,1′-biphenyl]-2-yl)oxy)pyrimidin-4-yl)-2,7-diazaspiro[4.4]nonan-2-yl)methyl)cyclo-hexan-1-amine] were, in that order, less than 100 nM and 100 to 1000 nM.
With `CC(C)c1ccccc1-c1cc(F)ccc1Oc1cncnc1N1CCC2(CCN(C[C@H]3CC[C@H](NC(=O)OC(C)(C)C)CC3)C2)C1` (stereo partly shown) [Example 220, tert-butyl ((1r,4r)-4-((7-(5-((5-fluoro-2′-isopropyl-[1,1′-biphenyl]-2-yl)oxy)pyrimidin-4-yl)-2,7-diazaspiro[4.4]nonan-2-yl)methyl)cyclohexyl) carbamate], the IC50 in assay [1] was less than 100 nM. The compound further gave an EC50 in assay [2] (Homo sapiens, MV4-11, 72 h) of 100 to 1000 nM.
In turn, `CC(=O)Nc1ccc(CN2CCC3(CCN(c4ncncc4Oc4ccc(F)cc4-c4ccccc4C(C)C)C3)C2)cc1` (stereo not shown) [Example 221, N-(4-((7-(5-((5-fluoro-2′-isopropyl-[1,1′-biphenyl]-2-yl)oxy)pyrimidin-4-yl)-2,7-diazaspiro[4.4]nonan-2-yl)methyl)phenyl) acetamide] yielded an IC50 in assay [1] of less than 100 nM. The EC50 in assay [2] (Homo sapiens, MV4-11, 72 h) is 100 to 1000 nM.
The like results for `CC(C)N(C)S(=O)(=O)c1cc(F)ccc1Oc1cncnc1N1CCC2(CCN(Cc3ccc4[nH]c(=O)[nH]c4c3)C2)C1` (stereo not shown) [Example 222, 5-fluoro-N-isopropyl-N-methyl-2-((4-(7-((2-oxo-2,3-dihydro-1H-benzo[d]imidazol-5-yl)methyl)-2,7-diazaspiro[4.4]nonan-2-yl)pyrimidin-5-yl)oxy)benzenesulfon-amide] were, in that order, less than 100 nM and not below 1000 nM.
The like results for `CCOC(=O)c1ccccc1-c1cc(F)ccc1Oc1cncnc1N1CCC2(CCN(Cc3ccc4[nH]c(=O)[nH]c4c3)C2)C1` (stereo not shown) [Example 223, ethyl 5′-fluoro-2′-((4-(7-((2-oxo-2,3-dihydro-1H-benzo[d]imidazol-5-yl)methyl)-2,7-diazaspiro[4.4]nonan-2-yl)pyrimidin-5-yl)oxy)-[1,1′-biphenyl]-2-carboxylate] were, in that order, less than 100 nM and 100 to 1000 nM.
The like results for `CC(C)c1ncsc1-c1cc(F)ccc1Oc1cncnc1N1CCC2(CCN(Cc3ccc4[nH]c(=O)[nH]c4c3)C2)C1` (stereo not shown) [Example 224, 5-((7-(5-(4-fluoro-2-(4-isopropylthiazol-5-yl)phenoxy)pyrimidin-4-yl)-2,7-diazaspiro[4.4]nonan-2-yl)methyl)-1,3-dihydro-2H-benzo[d]imidazol-2-one] were, in that order, less than 100 nM and less than 100 nM.
In turn, `CC(C)N(C)C(=O)c1cc(F)ccc1Oc1cncnc1N1CC2(CN(CC3CCOCC3)C2)C1` [Example 225, 5-fluoro-N-isopropyl-N-methyl-2-((4-(6-((tetrahydro-2H-pyran-4-yl)methyl)-2,6-diazaspiro[3.3]heptan-2-yl)pyrimidin-5-yl)oxy)benzamide] returned a concentration for half-maximal inhibition (IC50) in assay [1] of less than 100 nM. In addition, the half-maximal effective concentration (EC50) in assay [2] (Homo sapiens, MV4-11, 72 h) lay in the range of 100 to 1000 nM.
Take `Cc1cc(C#N)ccc1-c1cc(F)ccc1Oc1cncnc1N1CCC2(CCN(Cc3ccc4[nH]c(=O)[nH]c4c3)C2)C1` (stereo not shown) [Example 226, 5′-fluoro-2-methyl-2′-((4-(7-((2-oxo-2,3-dihydro-1H-benzo[d]imidazol-5-yl)methyl)-2,7-diazaspiro[4.4]nonan-2-yl)pyrimidin-5-yl)oxy)-[1,1′-biphenyl]-4-carbonitrile]: the IC50 in assay [1] was less than 100 nM. Moreover, the EC50 in assay [2] (72 h) is not below 1000 nM.
